Where two headings read alike, the source gives them in different places.
Assays:
Aβ42 production = experiment: Inhibition of Aβ42 production in H4 neuroglioma cells stably expressing human APP695 (MSD electrochemiluminescence); format: cell-based
Experimental: Cells were plated out to near confluency. The compounds to be tested were received as 10 mM stocks in 100% DMSO. A dilution series was initially generated in 100% DMSO and then diluted 200-fold in cell culture media such that the tested concentration range was 30 μM to 0.1 nM and the final DMSO concentration was 0.5%. The diluted compounds were incubated with the cells for 22 hours in an incubator at 37° C. and 5% CO2. Aβ42 levels were measured post-incubation from the supernatant of the cells using an Aβ42 specific electrochemiluminescence assay provided by Meso Scale Discovery (Catalog #L21CA-1). The measurement of Aβ42 levels were performed according to the manufacturer's protocol.

FGFR2 = FGFR2 (Homo sapiens, UniProt P21802); experiment: Z'-LYTE SelectScreen biochemical kinase assay FGFR2
Text: (§1) Thermo Fisher Scientific SelectScreen™ Biochemical Kinase Profiling Service Z′-LYTE™ Screening Protocol and Assay Conditions Assay Theory
(§2) The […] biochemical assay employs a fluorescence-based, coupled-enzyme format and is based on the differential sensitivity of phosphorylated and non-phosphorylated peptides to proteolytic cleavage. The peptide substrate is labeled with two fluorophores—one at each end—that make up a FRET pair. In the primary reaction, the kinase transfers the gamma-phosphate of ATP to a single tyrosine, serine or threonine residue in a synthetic FRET-peptide. In the secondary reaction, a site-specific protease recognizes and cleaves non-phosphorylated FRET-peptides. Phosphorylation of FRET-peptides suppresses cleavage by the Development Reagent. Cleavage disrupts FRET between the donor (i.e., coumarin) and acceptor (i.e., fluorescein) fluorophores on the FRET-peptide, whereas uncleaved, phosphorylated FRET-peptides maintain FRET. A ratiometric method, which calculates the ratio (Emission Ratio=Coumarin emission (445 nm)/Fluorescein emission (520 nm)) of donor emission to acceptor emission after excitation of the donor fluorophore at 400 nm, is used to quantitate reaction progress, as shown in the equation below. A significant benefit of this ratiometric method for quantitating reaction progress is the elimination of well-to-well variations in FRET-peptide concentration and signal intensities. As a result, the assay yields very high Z′-factor values (>0.7) at a low percent phosphorylation. Both cleaved and uncleaved FRET-peptides contribute to the fluorescence signals and therefore to the Emission Ratio. The extent of phosphorylation of the FRET-peptide can be calculated from the Emission Ratio. The Emission Ratio will remain low if the FRET-peptide is phosphorylated (i.e., no kinase inhibition) and will be high if the FRET-peptide is non-phosphorylated (i.e., kinase inhibition).
(§3) The Test Compounds are screened in 1% DMSO (final) in the well. For 10 point titrations, 3-fold serial dilutions are conducted from the starting concentration of the customer's choosing.
(§4) All Peptide/Kinase Mixtures are diluted to a 2× working concentration in the appropriate Kinase Buffer (see section Kinase Specific Assay Conditions for a complete description).
(§5) All ATP Solutions are diluted to a 4× working concentration in Kinase Buffer (50 mM HEPES pH 7.5, 0.01% BRIJ-35, 10 mM MgCl2, 1 mM EGTA). ATP Km apparent is previously determined using a Z″-LYTE assay.
(§6) The Development Reagent is diluted in Development Buffer (see section Kinase-Specific Assay Conditions—Direct and Cascade for a complete description).
(§7) Bar-coded Corning, low volume NBS, black 384-well plate (Corning Cat. #4514) • 1. 100 nL—100× Test Compound in 100% DMSO • 2. 2.4 μL—Kinase buffer • 3. 5 μL—2× Peptide/Kinase Mixture • 4. 2.5 μL—4×ATP Solution • 5. 30—second plate shake • 6. 60—minute Kinase Reaction incubation at room temperature • 7. 5 μL—Development Reagent Solution • 8. 30—second plate shake • 9. 60—minute Development Reaction incubation at room temperature • 10. Read on fluorescence plate reader and analyze the data Z′-LYTE Assay Controls
(§8) SelectScreen Kinase Profiling Service uses XLfit from IDBS. The dose response curve is curve fit to model number 205 (sigmoidal dose-response model).
The 2×FGFR2/Tyr 04 mixture is prepared in 50 mM HEPES pH 7.5, 0.01% BRIJ-35, 10 mM MgCl2, 4 mM MnCl2, 1 mM EGTA, 2 mM DTT. The final 10 μL Kinase Reaction consists of 0.19-1.99 ng FGFR2 and 2 μM Tyr 04 in 50 mM HEPES pH 7.5, 0.01% BRIJ-35, 10 mM MgCl2, 2 mM MnCl2, 1 mM EGTA, 1 mM DTT. After the 1 hour Kinase Reaction incubation, 5 μL of a 1:64 dilution of Development Reagent B is added.

ABL1 = ABL1 (Homo sapiens, UniProt P00519); experiment: Z'-LYTE SelectScreen biochemical kinase assay ABL1
Text: as §1, §2, §3, §4, §5, §6, §7, §8
(§9) The 2×ABL1/Tyr 02 mixture is prepared in 50 mM HEPES pH 7.5, 0.01% BRIJ-35, 10 mM MgCl2, 1 mM EGTA. The final 10 μL Kinase Reaction consists of 0.29-1.26 ng ABL1 and 2 μM Tyr 02 in 50 mM HEPES pH 7.5, 0.01% BRIJ-35, 10 mM MgCl2, 1 mM EGTA. After the 1 hour Kinase Reaction incubation, 5 μL of a 1:128 dilution of Development Reagent A is added.

MAP4K4 (HGK) = MAP4K4 (HGK) (Homo sapiens, UniProt O95819); experiment: Z'-LYTE SelectScreen biochemical kinase assay MAP4K4 (HGK)
Text: as §1, §2, §3, §4, §5, §6, §7, §8
as §9, with “2×MAP4K4 (HGK)/Ser/Thr 07” for “2×ABL1/Tyr 02”, “0.36-1.82” for “0.29-1.26”, “MAP4K4 (HGK)” for “ABL1”, “Ser/Thr 07” for “Tyr 02”, “1:45000” for “1:128”

[1] = H4 neuroglioma cells expressing human APP695, 22 hours incubation, Table 4a
[2] = 10 μmolar compound concentration, ATP at Km app, read-out: FGFR2 inhibition
[3] = read-out: % Inhibition mean FGFR2
[4] = 10 μmolar compound concentration, ATP at Km app, read-out: ABL1 inhibition
[5] = read-out: % Inhibition mean ABL1
[6] = 10 μmolar compound concentration, ATP at Km app, read-out: MAP4K4 (HGK) inhibition
[7] = read-out: % Inhibition mean MAP4K4 (HGK)

MAP4K4 (HGK), sequence (O95819 whole entry): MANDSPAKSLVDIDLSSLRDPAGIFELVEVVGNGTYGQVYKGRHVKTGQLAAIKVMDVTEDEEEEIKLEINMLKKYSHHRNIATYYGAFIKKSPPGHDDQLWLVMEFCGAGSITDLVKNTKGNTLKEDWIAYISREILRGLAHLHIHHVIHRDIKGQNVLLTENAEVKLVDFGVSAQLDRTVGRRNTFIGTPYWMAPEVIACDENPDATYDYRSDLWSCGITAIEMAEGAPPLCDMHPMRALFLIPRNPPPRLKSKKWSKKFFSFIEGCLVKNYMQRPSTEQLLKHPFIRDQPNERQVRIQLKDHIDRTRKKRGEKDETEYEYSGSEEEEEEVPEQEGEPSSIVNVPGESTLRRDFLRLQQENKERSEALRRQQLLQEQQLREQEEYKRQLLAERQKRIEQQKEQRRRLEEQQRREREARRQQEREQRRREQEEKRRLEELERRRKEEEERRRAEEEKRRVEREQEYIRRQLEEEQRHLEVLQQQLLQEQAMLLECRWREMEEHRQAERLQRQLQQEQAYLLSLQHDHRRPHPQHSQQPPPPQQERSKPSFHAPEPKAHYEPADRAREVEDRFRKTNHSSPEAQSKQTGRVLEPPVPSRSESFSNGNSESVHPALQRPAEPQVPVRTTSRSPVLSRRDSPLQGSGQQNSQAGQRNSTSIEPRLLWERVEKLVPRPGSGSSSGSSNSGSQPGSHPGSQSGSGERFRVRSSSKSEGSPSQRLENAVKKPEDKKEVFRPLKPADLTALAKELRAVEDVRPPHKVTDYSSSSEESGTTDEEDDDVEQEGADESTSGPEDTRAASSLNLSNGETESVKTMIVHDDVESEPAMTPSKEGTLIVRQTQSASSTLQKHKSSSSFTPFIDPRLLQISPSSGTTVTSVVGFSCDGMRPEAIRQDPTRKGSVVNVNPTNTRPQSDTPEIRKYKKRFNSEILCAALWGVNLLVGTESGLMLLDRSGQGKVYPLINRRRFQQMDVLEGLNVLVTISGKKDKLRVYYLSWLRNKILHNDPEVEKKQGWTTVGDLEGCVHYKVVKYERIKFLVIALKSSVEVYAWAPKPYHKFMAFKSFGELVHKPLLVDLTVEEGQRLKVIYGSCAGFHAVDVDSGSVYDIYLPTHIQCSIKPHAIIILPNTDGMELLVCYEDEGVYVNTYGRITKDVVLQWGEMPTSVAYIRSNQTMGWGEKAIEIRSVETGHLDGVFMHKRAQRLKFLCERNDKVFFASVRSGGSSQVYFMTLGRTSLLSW
ABL1, sequence (P00519 whole entry): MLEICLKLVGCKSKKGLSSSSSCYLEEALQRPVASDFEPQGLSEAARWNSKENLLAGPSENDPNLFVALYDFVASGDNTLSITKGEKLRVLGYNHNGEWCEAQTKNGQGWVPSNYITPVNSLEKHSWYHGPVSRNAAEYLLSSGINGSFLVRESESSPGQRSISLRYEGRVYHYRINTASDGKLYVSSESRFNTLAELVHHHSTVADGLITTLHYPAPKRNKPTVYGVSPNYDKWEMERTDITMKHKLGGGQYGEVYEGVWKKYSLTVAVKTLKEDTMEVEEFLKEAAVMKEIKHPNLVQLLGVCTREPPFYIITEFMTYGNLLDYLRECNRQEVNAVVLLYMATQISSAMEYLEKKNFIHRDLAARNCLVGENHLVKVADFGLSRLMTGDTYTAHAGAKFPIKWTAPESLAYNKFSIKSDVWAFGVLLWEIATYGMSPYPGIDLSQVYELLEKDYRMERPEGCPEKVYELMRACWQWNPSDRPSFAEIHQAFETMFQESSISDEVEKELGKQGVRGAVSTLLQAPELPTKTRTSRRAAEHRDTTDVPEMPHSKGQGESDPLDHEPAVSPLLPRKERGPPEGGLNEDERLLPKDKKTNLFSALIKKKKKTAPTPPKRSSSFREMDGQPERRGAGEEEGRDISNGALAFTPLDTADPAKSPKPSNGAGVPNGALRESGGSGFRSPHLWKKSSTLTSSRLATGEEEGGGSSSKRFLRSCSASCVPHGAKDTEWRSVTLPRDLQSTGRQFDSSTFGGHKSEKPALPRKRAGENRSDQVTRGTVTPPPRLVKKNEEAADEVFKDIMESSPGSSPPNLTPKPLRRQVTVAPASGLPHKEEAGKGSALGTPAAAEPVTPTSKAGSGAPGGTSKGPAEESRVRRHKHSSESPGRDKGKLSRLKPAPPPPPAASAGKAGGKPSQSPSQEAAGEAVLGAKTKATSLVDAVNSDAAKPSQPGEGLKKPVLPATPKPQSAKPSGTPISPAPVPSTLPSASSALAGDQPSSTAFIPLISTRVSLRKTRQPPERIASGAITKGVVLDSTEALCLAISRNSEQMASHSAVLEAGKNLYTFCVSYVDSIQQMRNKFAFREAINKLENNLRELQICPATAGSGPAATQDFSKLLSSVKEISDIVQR
FGFR2, sequence (P21802 22-821): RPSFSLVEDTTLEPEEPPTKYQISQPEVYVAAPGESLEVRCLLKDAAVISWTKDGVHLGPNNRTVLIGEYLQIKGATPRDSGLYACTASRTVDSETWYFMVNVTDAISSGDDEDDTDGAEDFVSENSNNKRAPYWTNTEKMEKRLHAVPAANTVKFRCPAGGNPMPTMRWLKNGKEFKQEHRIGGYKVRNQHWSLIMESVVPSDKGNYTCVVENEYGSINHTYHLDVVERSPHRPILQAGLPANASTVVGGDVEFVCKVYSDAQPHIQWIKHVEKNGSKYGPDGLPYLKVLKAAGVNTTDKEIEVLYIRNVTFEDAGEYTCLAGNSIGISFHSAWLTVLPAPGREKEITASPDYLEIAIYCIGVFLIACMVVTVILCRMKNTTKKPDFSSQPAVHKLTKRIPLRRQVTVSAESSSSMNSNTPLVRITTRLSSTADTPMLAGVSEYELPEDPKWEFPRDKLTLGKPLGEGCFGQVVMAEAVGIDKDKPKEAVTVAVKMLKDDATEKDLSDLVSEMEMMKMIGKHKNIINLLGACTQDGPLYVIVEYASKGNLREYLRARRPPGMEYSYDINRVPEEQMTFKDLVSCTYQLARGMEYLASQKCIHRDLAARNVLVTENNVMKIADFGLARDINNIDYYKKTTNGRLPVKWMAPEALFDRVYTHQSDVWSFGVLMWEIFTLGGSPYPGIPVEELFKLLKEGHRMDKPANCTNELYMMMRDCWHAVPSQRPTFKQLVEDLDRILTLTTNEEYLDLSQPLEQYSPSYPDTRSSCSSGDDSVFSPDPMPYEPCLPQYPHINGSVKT

Structure (SMILES)	IC50 (Aβ42 production; [1])	inhibition at 10 µM (FGFR2; [2])	inhibition at 10 µM (FGFR2; [3])	inhibition at 10 µM (ABL1; [4])	inhibition at 10 µM (ABL1; [5])	inhibition at 10 µM (MAP4K4 (HGK); [6])	inhibition at 10 µM (MAP4K4 (HGK); [7])	IC50 (Aβ42 production; Homo sapiens, H4 neuroglioma cells, same assay as table 4a, prior art compounds, Table 4b)	modulation of γ-secretase (in words) (Aβ42 production; tables 4a/4b)	inhibition at 10 µM (FGFR2; read-out: % Inhibition mean)	inhibition at 10 µM (ABL1; read-out: % Inhibition mean)	inhibition at 10 µM (MAP4K4 (HGK); read-out: % Inhibition mean)
CCn1ncc2c1C(C)CC(Nc1nc3c(-c4cc(F)c(F)c(F)c4)cccn3n1)C2 (stereo not shown) [Example 49, (1-Ethyl-7-methyl-4,5,6,7-tetrahydro-1H-indazol-5-yl)-[8-(3,4,5-trifluoro-phenyl)-[1,2,4]triazolo[1,5-a]pyridine-2-yl]-amine]	950 nM	< 40%	31%	< 40%	15%	40 to 80%	54%					
CCn1ncc2c1CCC(Nc1nc3c(-c4ccccc4)cccn3n1)C2 (stereo not shown) [Example 57, (1-Ethyl-4,5,6,7-tetrahydro-1H-indazol-5-yl)-(8-phenyl-[1,2,4]triazolo[1,5-a]pyridine-2-yl)-amine]	70 nM	< 40%	22%	< 40%	11%	40 to 80%	58%					
CCCn1ncc2c1CCC(Nc1nc3c(-c4ccc(F)cc4C)cccn3n1)C2 (stereo not shown) [Example 43, [8-(4-fluoro-2-methyl-phenyl)-[1,2,4]triazolo[1,5-a]pyridine-2-yl]-(1-propyl-4,5,6,7-tetrahydro-1H-indazol-5-yl)-amine]	60 nM	< 40%	14%	< 40%	17%	40 to 80%	40%					
Cc1cc(F)ccc1-c1cccn2nc(NC3CCc4c(cnn4C(C)C)C3)nc12 (stereo not shown) [Example 44, [8-(4-fluoro-2-methyl-phenyl)-[1,2,4]triazolo[1,5-a]pyridine-2-yl]-(1-isopropyl-4,5,6,7-tetrahydro-1H-indazol-5-yl)-amine]	430 nM	< 40%	22%	< 40%	13%	< 40%	37%					
CCc1nn(C)c2c1CCC(Nc1nc3c(-c4ccc(F)cc4C)cccn3n1)C2 (stereo not shown) [Example 54, (3-Ethyl-1-methyl-4,5,6,7-tetrahydro-1H-indazol-6-yl)-[8-(4-fluoro-2-methyl-phenyl)-[1,2,4]triazolo[1,5-a]pyridine-2-yl]-amine]	3130 nM	< 40%	25%	< 40%	12%	< 40%	25%					
CCn1nnc2c1CCC(Nc1nc3c(-c4ccc(F)cc4C)cccn3n1)C2 (stereo not shown) [Example 51, (1-Ethyl-4,5,6,7-tetrahydro-1H-benzotriazol-5-yl)-[8-(4-fluoro-2-methyl-phenyl)-[1,2,4]triazolo[1,5-a]pyridine-2-yl]-amine]	2200 nM	< 40%	28%	< 40%	6%	< 40%	-8%					
CCn1ncc2c1CC[C@@H](Nc1nc3c(-c4ccc(F)c(Cl)c4)cccn3n1)C2 [Example R-61, (R)-[8-(3-Chloro-4-fluoro-phenyl)-[1,2,4]triazolo[1,5-a]pyridine-2-yl]-(1-ethyl-4,5,6,7-tetrahydro-1H-indazol-5-yl)-amine]	9 nM	< 40%	12%	< 40%	3%	< 40%	24%					
CCn1ncc2c1CCC(Nc1nc3c(-c4ccccc4C)cccn3n1)C2 (stereo not shown) [Example 56, (1-Ethyl-4,5,6,7-tetrahydro-1H-indazol-5-yl)-[8-(2-methyl-phenyl)-[1,2,4]triazolo[1,5-a]pyridine-2-yl]-amine]	160 nM	< 40%	19%	< 40%	20%	40 to 80%	48%					
CCn1ncc2c1CCC(Nc1nc3c(-c4cnccc4OC)cccn3n1)C2 (stereo not shown) [Example 68, (1-Ethyl-4,5,6,7-tetrahydro-1H-indazol-5-yl)-[8-(4-methoxy-pyridin-3-yl)-[1,2,4]triazolo[1,5-a]pyridine-2-yl]-amine]	120 nM	< 40%	28%	< 40%	28%	40 to 80%	42%					
CCn1ncc2c1CCC(Nc1nc3c(-c4ccc(C)nc4)cccn3n1)C2 (stereo not shown) [Example 67, (1-Ethyl-4,5,6,7-tetrahydro-1H-indazol-5-yl)-[8-(6-methyl-pyridin-3-yl)-[1,2,4]triazolo[1,5-a]pyridine-2-yl]-amine]	670 nM	< 40%	30%	< 40%	11%	40 to 80%	49%					
Fc1cccc(-c2cccn3nc(Nc4ccc5[nH]cnc5c4)nc23)c1 [Cpd. 293 in WO09155551, reference compound]		> 80%		> 80%		> 80%		7000 nM	do not show any modulation	90%	97%	95%
CCn1ncc2c1CCC(Nc1nc3c(-c4cncc(Cl)c4)cccn3n1)C2 (stereo not shown) [Example 73, [8-(5-Chloro-pyridin-3-yl)-[1,2,4]triazolo[1,5-a]pyridine-2-yl]-(1-ethyl-4,5,6,7-tetrahydro-1H-indazol-5-yl)-amine]	40 nM	< 40%	26%	< 40%	21%	40 to 80%	74%					

From patent US11339161B2, “Triazolo pyridines as modulators of gamma-secretase” (Boehringer Ingelheim International GmbH, priority 2017, dated 2022)
